As a reminder, the IC50 is the midpoint of a concentration-inhibition curve.

SMILES strings stand for the structures.

The target in this assay is T1, human neurotrypsin (Homo sapiens, UniProt P56730).
T1 sequence (P56730 21-875): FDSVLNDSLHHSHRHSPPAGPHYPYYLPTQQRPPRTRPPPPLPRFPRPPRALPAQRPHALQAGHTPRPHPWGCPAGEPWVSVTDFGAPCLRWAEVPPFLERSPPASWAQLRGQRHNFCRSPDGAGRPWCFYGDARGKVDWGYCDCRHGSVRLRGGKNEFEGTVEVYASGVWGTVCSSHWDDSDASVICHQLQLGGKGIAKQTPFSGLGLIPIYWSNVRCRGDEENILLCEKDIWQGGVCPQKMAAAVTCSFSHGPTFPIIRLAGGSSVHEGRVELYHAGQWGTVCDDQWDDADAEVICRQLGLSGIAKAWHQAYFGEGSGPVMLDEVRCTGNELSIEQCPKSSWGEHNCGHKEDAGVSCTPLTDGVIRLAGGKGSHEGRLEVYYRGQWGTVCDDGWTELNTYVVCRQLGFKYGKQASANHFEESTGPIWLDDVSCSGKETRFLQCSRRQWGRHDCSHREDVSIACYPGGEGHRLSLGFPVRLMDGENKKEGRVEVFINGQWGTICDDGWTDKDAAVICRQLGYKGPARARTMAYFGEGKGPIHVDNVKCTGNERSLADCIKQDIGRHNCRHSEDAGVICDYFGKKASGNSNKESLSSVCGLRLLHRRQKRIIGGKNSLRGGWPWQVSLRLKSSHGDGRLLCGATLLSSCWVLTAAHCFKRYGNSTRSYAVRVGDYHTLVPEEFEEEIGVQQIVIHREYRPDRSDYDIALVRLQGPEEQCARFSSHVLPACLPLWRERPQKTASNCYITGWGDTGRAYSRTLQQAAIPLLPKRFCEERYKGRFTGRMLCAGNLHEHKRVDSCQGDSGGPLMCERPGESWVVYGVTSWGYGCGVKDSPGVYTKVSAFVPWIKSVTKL
The assay can be described thus: Determination of IC50 for human neurotrypsin. Format: biochemical. The settings on record: human neurotrypsin; method of WO 2006/1103261; read-out: Neurotrypsin IC50. Here is the method: Assessment of the potency of compounds of examples 1-311 in inhibiting the enzymatic activity of human neurotrypsin was performed according to the method described in patent application WO 2006/1103261
Consider `O=C(Nc1nccs1)c1ccc(C(=O)O)c(NC(=O)c2sc3ccccc3c2Cl)c1` [Example 52, 2-(3-Chlorobenzo[b]thiophene-2-carboxamido)-4-(thiazol-2-ylcarbamoyl)-benzoic acid], for which the IC50 stood at 15.4 µM.
Regarding `O=C(Nc1ncc(Cl)s1)c1ccc(C(=O)O)c(NC(=O)c2sc3ccccc3c2Cl)c1` [Example 59], the IC50 is 9 µM.
Under `O=C(Nc1ncc(Cl)s1)c1ccc(C(=O)O)c(NC(=O)c2ccc(-c3ccccc3)s2)c1` [Example 62] stands 7.5 µM; under `O=C(Nc1ccc(CCc2ccccc2)cc1)c1ccc(C(=O)O)c(NC(=O)c2sc3ccccc3c2Cl)c1` [Example 63, 2-(3-Chlorobenzo[b]-thiophene-2-carboxamido)-4-(4-phenethylphenyl-carbamoyl)benzoic acid], 130 µM; under `O=C(Nc1ccc(Oc2ccccc2)cc1)c1ccc(C(=O)O)c(NC(=O)c2sc3ccccc3c2Cl)c1` [Example 64], 23.3 µM.
Under `O=C(Nc1cccc(Oc2ccccc2)c1)c1ccc(C(=O)O)c(NC(=O)c2sc3ccccc3c2Cl)c1` [Example 65] stands 7.3 µM; under `O=C(Nc1ccc(Cc2ccccc2)cc1)c1ccc(C(=O)O)c(NC(=O)c2sc3ccccc3c2Cl)c1` [Example 67], 10.7 µM.
Under `CC(C)(C)c1ccc(NC(=O)c2ccc(C(=O)O)c(NC(=O)c3sc4ccccc4c3Cl)c2)cc1` [Example 69] stands 3.1 µM.
Turning to `O=C(Nc1ccc(Oc2ccccc2)c(Cl)c1)c1ccc(C(=O)O)c(NC(=O)c2sc3ccccc3c2Cl)c1` [Example 73], the IC50 was determined as 4.4 µM.
With `O=C(O)CN(C(=O)c1ccc(C(=O)O)c(NC(=O)c2sc3ccccc3c2Cl)c1)c1ccc(Cl)cc1` [Example 74], the IC50 stood at 26.1 µM.
Under `CC(C)(C)c1cccc(NC(=O)c2ccc(C(=O)O)c(NC(=O)c3sc4ccccc4c3Cl)c2)c1` [Example 75] stands 5.6 µM; under `CC(C)(C)Oc1ccc(NC(=O)c2ccc(C(=O)O)c(NC(=O)c3sc4ccccc4c3Cl)c2)cc1` [Example 78], 19.2 µM; under `O=C(Nc1ccccc1O)c1ccc(C(=O)O)c(NC(=O)c2sc3ccccc3c2Cl)c1` [Example 82], 17.8 µM.
Then `O=C(Nc1ccc(Oc2cccnc2)cc1)c1ccc(C(=O)O)c(NC(=O)c2sc3ccccc3c2Cl)c1` [Example 84], with 4.8 µM; and `O=C(Nc1ccc(Oc2cccnc2)c(Cl)c1)c1ccc(C(=O)O)c(NC(=O)c2sc3ccccc3c2Cl)c1` [Example 85], with 2.3 µM; and `O=C(Nc1nc2ccc(Cl)cc2s1)c1ccc(C(=O)O)c(NC(=O)c2sc3ccccc3c2Cl)c1` [Example 87, 2-(3-Chlorobenzo[b]-thiophene-2-carboxamido)-4-(6-chlorobenzo[d]thiazol-2-yl-carbamoyl)benzoic acid], with 4.3 µM.
Consider `CN(C(=O)c1ccc(C(=O)O)c(NC(=O)c2sc3ccccc3c2Cl)c1)c1cc2ccccc2s1` [Example 88], for which the IC50 amounted to 24.8 µM.
Then `O=C(NCc1ccc(Cl)s1)c1ccc(C(=O)O)c(NC(=O)c2sc3ccccc3c2Cl)c1` [Example 90], with 4.9 µM; and `O=C(NCc1ccc(-c2ccc(Cl)cc2)s1)c1ccc(C(=O)O)c(NC(=O)c2sc3ccccc3c2Cl)c1` [Example 91, 2-(3-Chlorobenzo[b]-thiophene-2-carboxamido)-4-((5-(4-chlorophenyl)thiophen-2-ylmethyl)carbamoyl)-benzoic acid], with 10 µM; and `O=C(O)c1ccc(C(=O)N2CCCc3ccccc32)cc1NC(=O)c1sc2ccccc2c1Cl` [Example 97], with 10.3 µM.
Then `O=C(O)c1ccc(C(=O)N2CCC(O)(c3ccc(Cl)cc3)CC2)cc1NC(=O)c1sc2ccccc2c1Cl` [Example 99], with 6.9 µM.
Regarding `O=C(O)c1ccc(C(=O)N2CCC(Oc3ccccc3)C2)cc1NC(=O)c1sc2ccccc2c1Cl` (centres unmarked) [Example 101], the IC50 turned out to be 9 µM.
Under `O=C(O)c1ccc(C(=O)N2CCC(c3ccccc3)C2)cc1NC(=O)c1sc2ccccc2c1Cl` (centres unmarked) [Example 103] stands 4.1 µM.

For the origin of these results see US20130261130A1, “NEUROTRYPSIN INHIBITORS” (priority 2010, published 2013).
